From patent publication US6723702B2, “Use of relaxin treat diseases related to vasoconstriction” (RAS Medical, Inc., priority 2000, dated 2004) come the findings set out here.

Marks after values point to notes of the source that are not given here.

In assay [1] the test system is intact, female rats. The assay is described as follows: Hematocrit and plasma osmolality during chronic relaxin infusion. The format is in vivo, rat. Conditions: for Hematocrit, Difference between baseline and Day 5 / Plasma osmolality, Difference between baseline and Day 5: 4 μg/h s.c. infusion. As to the method: At the beginning of each experiment, immediately after opening the arterial catheter and before infusion of fluids, 100 μl of blood was collected into a heparinized tube. After centrifugation to separate blood cells from plasma, the latter was frozen at −20° C. until assay for osmolality. Then, three 30-minute baseline urine collections with midpoint blood samples and continuous recording of MAP were made on one or two occasions separated by at least 48 hours, in order to accurately measure control MAP, GFR, ERPF, and ERVR (MAP/ERPF). The hematocrit was also routinely determined on these midpoint blood samples. The renal clearances of IN and PAH were used to assess GFR and ERPF, respectively. […] Next, an osmotic minipump containing purified porcine RLX (4 μg/hour; n=7 rats), rhRLX (4 μg/hour; n=5) or vehicle (n=4) was implanted. MAP, GFR, ERPF, and ERVR were assessed on days 2 and 5 of the infusion, and 5-12 days after depletion of the 7-day minipump. Details of our methodologies for the assessment of GFR and ERPF in chronically instrumented, conscious rats including the measurement of IN and PAH in both plasma and urine have been previously published. Conrad (1984) Kidney Int. 26:24-29; and Danielson and Conrad (1995) J. Clin. Invest. 96:482-490. Circulating relaxin concentrations of 20-40 ng/mL have been measured in rats of 12-14 gestational days. Sherwood et al. (1980) Endocrinol. 107:691-698. An infusion rate of 4 μg/hour for purified porcine RLX or rhRLX would be expected to produce plasma levels of 20-40 ng/mL.
Plasma osmolality was measured using a freezing-point depression instrumentation osmometer (Model 3MO, Advanced Instruments, Needham Heights, Mass.). Plasma and urine IN and PAH were assayed by standard techniques. Urinary sodium concentration was measured by ion selective electrode (Sodium-Potassium Chemistry Module, Beckman Instruments, Inc., Brea, Calif.). Urinary cGMP was determined by specific radioimmunoassay as previously described. Conrad and Vernier (1989) Am. J. Physiol. 257:R847-R853. Urinary NOX was measured by reduction of nitrate to nitrite, the latter determined by the Griess reaction which produces a calorimetric product measured at 540 nm (Nitrate/Nitrite Colorimetric Assay Kit, Cayman Chemical, Ann Arbor, Mich.).
Data are presented as mean±SEM. rhRLX, recombinant human relaxin. RLX was infused at 4 μg/h by osmotic minipump s.c. There were 7, 4, and 5 rats, respectively, in the porcine RLX, vehicle, and rhRLX groups at baseline, and days 2 and 5 of treatment. During the post RLX period, 6, 2, and 2 rats were studied in the porcine RLX, vehicle and rhRLX groups. Two of the rats in the vehicle group received Ringer's solution (vehicle for porcine RLX), and two received 20 mM sodium acetate, pH 5.0 (vehicle for rhRLX). The results were not different, and therefore, the data were combined. *p<0.05 vs baseline, Hp<0.05 RLX vs vehicle.

The subject of assay [2] is endothelial cells. Put plainly: Binding of 32P-labelled relaxin to endothelial cells.
Assay [3] deals with infarct and peri-infarct areas of the left ventricle. The assay is described as follows: Rat LCAL model: number of venules on H & E sections. The format is in vivo. As to the method: Female Sprague Dawley rats, approximately 12-weeks of age were used. Rats were anesthetized by intraperitoneal (i.p.) injection of up to 1 ml/kg ketamine/medetomidine (6:4). Following exteriorization of the heart, the left coronary artery was ligated near its origin with a silk suture. In sham surgery control animals, the suture was placed superficially into the muscle adjacent to the coronary artery. Post-closure EKG's were monitored for S-T segment elevation in LCAL animals to confirm the outcome of ligation. Immediately following cardiac surgery, a primed mini-osmotic pump containing relaxin or vehicle (20 mM acetate, pH 5.0) was aseptically implanted into a subcutaneous (s.c.) pocket on the dorsal interscapular region. Vehicle or relaxin (0.1 mg/kg/day) was delivered as a continuous s.c. infusion for 7 or 21 days to either sham or LCAL animals. Animals were terminated on day 7 or 21, and the peri-infarct regions anterior to the scar in the left ventricle, or equivalent sites on sham surgery animals were harvested.
The number of venules, arterioles and capillaries in the infarct and peri-infarct areas of the left ventricle were quantified by counting individual vessels on H & E (hematoxylin and eosin) stained sections. Numbers of venules, arterioles and capillaries were determined by counting in the area of the infarct, and in the right and left junction areas between the infarcted free wall and viable myocardium. Quantitation of venules and arterioles were obtained as total number of vessels in the entire area in each of 3 H&E stained transverse sections of the heart, i.e. apical, basal and midway between apical and basal levels. Quantitation was performed by a histopathologist blinded to the treatment groups. Venules comprised the observed increases in numbers of collateral vessels post-infarction. All veins counted in high dry fields were summed to yield vessel number per level. Three levels (apical, basal, and middle) were summed for each animal to yield total number of veins. N=4-5 animals per treatment group. […]

[4] abbreviates: Baseline, before 4 μg/h s.c. minipump.

“Porcine RLX: lyophilized, purified porcine relaxin (Sherwood and O'Byrne 1974), dissolved in Ringer's solution”: in assay [1], the “Hematocrit, Difference between baseline and Day 5” value is −4 ± 1 %. The “Plasma osmolality, Difference between baseline and Day 5” value in assay [1] is listed as −14 ± 3 mOsm/kg H2O. The Hematocrit is on record as 42 ± 1% in assay [1] (setting [4]), 39 ± 1* % in assay [1] (Day 2 of 4 μg/h s.c. infusion), 37 ± 1*† % in assay [1] (Day 5 of 4 μg/h s.c. infusion) and 40 ± 1% in assay [1] (Post RLX Day 5-12). For the same substance, the Plasma osmolality is 301 ± 2 mOsm/kg H2O in assay [1] (setting [4]), 289 ± 2*† mOsm/kg H2O in assay [1] (Day 2 of 4 μg/h s.c. infusion), 287 ± 2*† mOsm/kg H2O in assay [1] (Day 5 of 4 μg/h s.c. infusion) and 299 ± 2 mOsm/kg H2O in assay [1] (Post RLX Day 5-12).
With “rhRLX: recombinant human relaxin, identical in amino acid sequence to the product of the human H2 gene; A chain of 24, B chain of 29 amino acids”, in assay [2], the “binding of 32P-labelled relaxin to endothelial cells” value is recorded as “could not be detected”. Moreover, the “Hematocrit, Difference between baseline and Day 5” value in assay [1] is on record as −2 ± 1 %. The “Plasma osmolality, Difference between baseline and Day 5” value in assay [1] is −12 ± 2 mOsm/kg H2O. For the same substance, the Hematocrit is on record as 39 ± 0% in assay [1] (setting [4]), 37 ± 1* % in assay [1] (Day 2 of 4 μg/h s.c. infusion), 37 ± 1*† % in assay [1] (Day 5 of 4 μg/h s.c. infusion) and 40% in assay [1] (Post RLX Day 5-12). Besides, the Plasma osmolality is 299 ± 2 mOsm/kg H2O in assay [1] (setting [4]), 291 ± 3*† mOsm/kg H2O in assay [1] (Day 2 of 4 μg/h s.c. infusion), 286 ± 2*† mOsm/kg H2O in assay [1] (Day 5 of 4 μg/h s.c. infusion) and 302 mOsm/kg H2O in assay [1] (Post RLX Day 5-12). In assay [3] (day 7, 0.1 mg/kg/day), the “number of venules in the infarct region” value was determined as 163±8. The “number of venules (vessel number) in the infarct region” value in assay [3] (day 21, 0.1 mg/kg/day) came to 209±13. For the same substance, the “number of vessels in analogous area of the left ventricle” value in assay [3] (sham surgery) is “did not alter”.
